Results on 28 compounds are retold here after patent US9580437B2, “Triazolopyrimidine compounds and uses thereof” (Novartis AG, priority 2014, dated 2017).

SMILES strings stand for the structures.

Assay [1] has as its target wild type PRC2 (wtPRC2) complex (Homo sapiens (Human), UniProt O75530). Put plainly: EED LC-MS assay. The class given is biochemical. Particulars: read-out: (b) IC50 EED LC-MS Qualified. The protocol:
A 6 μL solution of 3 μM of the peptide substrate H3K27Me0 (histone H3[21-44]-biotin) in reaction buffer was added to initiate each reaction. […] ELISA (H3K27 Methylation) Assay

The target in assay [2] is EED (1-441)-His protein (Homo sapiens (Human), UniProt O75530). The assay is described as follows: EED-H3K27Me3 peptide competition binding assay by AlphaScreen. Particulars: read-out: (a) IC50 EED Alphascreen binding Qualified. The source says: EED-H3K27Me3 peptide competition binding assay by AlphaScreen (α-screen)
(Alpha assays give light when donor and acceptor beads are brought close together.)

Sequence of EED (1-441)-His protein (O75530 whole entry): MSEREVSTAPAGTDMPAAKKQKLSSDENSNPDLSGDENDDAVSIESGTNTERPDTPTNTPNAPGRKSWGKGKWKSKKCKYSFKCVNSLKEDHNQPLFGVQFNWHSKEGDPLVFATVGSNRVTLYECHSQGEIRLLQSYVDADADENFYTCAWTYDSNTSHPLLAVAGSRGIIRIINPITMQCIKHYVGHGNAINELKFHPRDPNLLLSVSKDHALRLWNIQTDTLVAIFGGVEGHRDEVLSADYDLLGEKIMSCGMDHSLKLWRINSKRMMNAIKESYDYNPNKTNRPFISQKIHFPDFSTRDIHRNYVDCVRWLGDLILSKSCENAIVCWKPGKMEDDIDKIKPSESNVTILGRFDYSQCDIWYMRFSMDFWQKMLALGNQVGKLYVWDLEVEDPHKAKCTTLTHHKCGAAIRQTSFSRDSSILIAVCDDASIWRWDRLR
Sequence of wild type PRC2 (wtPRC2) complex (O75530 whole entry): as above
Sequence of wild type PRC2 (wtPRC2) complex (Q15910 whole entry partner): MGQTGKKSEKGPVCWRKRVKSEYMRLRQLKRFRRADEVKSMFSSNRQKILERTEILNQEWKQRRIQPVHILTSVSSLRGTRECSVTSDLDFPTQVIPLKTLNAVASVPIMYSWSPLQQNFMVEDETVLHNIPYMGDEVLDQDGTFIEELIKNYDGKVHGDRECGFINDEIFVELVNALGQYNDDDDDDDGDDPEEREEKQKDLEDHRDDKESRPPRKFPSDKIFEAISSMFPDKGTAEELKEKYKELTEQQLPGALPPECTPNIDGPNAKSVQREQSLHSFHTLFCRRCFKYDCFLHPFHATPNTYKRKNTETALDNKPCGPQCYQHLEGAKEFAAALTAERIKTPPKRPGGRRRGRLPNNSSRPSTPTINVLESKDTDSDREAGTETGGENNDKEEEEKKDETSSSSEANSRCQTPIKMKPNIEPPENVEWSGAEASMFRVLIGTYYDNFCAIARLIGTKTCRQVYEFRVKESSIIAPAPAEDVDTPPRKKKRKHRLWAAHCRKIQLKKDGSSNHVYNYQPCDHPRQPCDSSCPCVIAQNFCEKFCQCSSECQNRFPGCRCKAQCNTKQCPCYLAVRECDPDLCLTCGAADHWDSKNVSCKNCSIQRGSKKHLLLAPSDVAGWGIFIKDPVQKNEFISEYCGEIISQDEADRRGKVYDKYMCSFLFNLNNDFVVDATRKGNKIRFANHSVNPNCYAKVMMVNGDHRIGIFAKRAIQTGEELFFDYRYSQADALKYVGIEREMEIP
Sequence of wild type PRC2 (wtPRC2) complex (Q15022 whole entry partner): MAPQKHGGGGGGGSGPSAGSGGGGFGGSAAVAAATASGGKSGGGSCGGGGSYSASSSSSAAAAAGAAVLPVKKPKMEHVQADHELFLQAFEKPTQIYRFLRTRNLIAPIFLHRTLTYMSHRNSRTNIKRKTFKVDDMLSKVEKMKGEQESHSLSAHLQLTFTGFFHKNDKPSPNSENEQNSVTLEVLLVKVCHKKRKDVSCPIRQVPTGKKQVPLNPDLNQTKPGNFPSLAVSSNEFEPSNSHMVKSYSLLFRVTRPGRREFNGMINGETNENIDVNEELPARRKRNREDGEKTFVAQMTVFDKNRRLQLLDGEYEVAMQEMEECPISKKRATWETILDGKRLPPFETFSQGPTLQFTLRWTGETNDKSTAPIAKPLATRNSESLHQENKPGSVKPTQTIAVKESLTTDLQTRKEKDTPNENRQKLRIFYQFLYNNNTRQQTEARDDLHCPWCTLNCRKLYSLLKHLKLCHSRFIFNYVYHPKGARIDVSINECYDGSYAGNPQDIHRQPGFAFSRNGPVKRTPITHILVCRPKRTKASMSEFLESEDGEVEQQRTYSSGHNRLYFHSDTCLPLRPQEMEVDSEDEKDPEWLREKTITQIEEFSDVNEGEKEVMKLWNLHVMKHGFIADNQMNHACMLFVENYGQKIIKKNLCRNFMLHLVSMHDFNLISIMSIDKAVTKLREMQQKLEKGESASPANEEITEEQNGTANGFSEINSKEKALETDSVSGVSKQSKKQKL

With `OCCn1cc(-c2cnc(NCc3cccc4c3CCO4)n3cnnc23)cn1` [Example 34, 2-(4-(5-(((2,3-dihydrobenzofuran-4-yl)methyl)amino)-[1,2,4]triazolo[4,3-c]pyrimidin-8-yl)-1H-pyrazol-1-yl)ethanol], the IC50 (usually the concentration that inhibits the measured activity by half) was determined as 49.4 nM in assay [1] and 37.5 nM in assay [2].

Regarding `Cc1c(-c2cnc(NCc3c(F)ccc4c3CCO4)n3cnnc23)cnn1CCO` [Example 189, 2-(4-(5-(((5-fluoro-2,3-dihydrobenzofuran-4-yl)methyl)amino)-[1,2,4]triazolo[4,3-c]pyrimidin-8-yl)-5-methyl-1H-pyrazol-1-yl)ethanol], the figures for the IC50 in assay [1] and in assay [2] were 8.7 nM and 4.2 nM, respectively.

On to `Cc1cc(S(C)(=O)=O)ncc1-c1cnc(NCc2c(F)ccc3c2CCO3)n2cnnc12` [Example 127, N-((5-fluoro-2,3-dihydrobenzofuran-4-yl)methyl)-8-(4-methyl-6-(methylsulfonyl)pyridin-3-yl)-[1,2,4]triazolo[4,3-c]pyrimidin-5-amine], for which the results for the IC50 in assay [1] and in assay [2] were 8.8 nM and 2.6 nM, respectively.

For `Nc1ccncc1-c1cnc(NCc2cccc3c2CCO3)n2cnnc12` [Example 76, 8-(4-aminopyridin-3-yl)-N-((2,3-dihydrobenzofuran-4-yl)methyl)-[1,2,4]triazolo[4,3-c]pyrimidin-5-amine], the IC50 in assay [1] was 56.9 nM; in assay [2], 27.5 nM.

For the compound `Cc1ncc(-c2cnc(NCc3cccc4c3CCO4)n3cnnc23)cn1` [Example 60, N-((2,3-dihydrobenzofuran-4-yl)methyl)-8-(2-methylpyrimidin-5-yl)-[1,2,4]triazolo[4,3-c]pyrimidin-5-amine], the figures for the IC50 in assay [1] and in assay [2] were 47 nM and 19.5 nM, respectively.

For the compound `COc1cc(-c2cnc(NCc3c(F)ccc4c3CCO4)n3cnnc23)ccn1` [Example 145, N-((5-fluoro-2,3-dihydrobenzofuran-4-yl)methyl)-8-(2-methoxypyridin-4-yl)-[1,2,4]triazolo[4,3-c]pyrimidin-5-amine], the results for the IC50 in assay [1] and in assay [2] were 11.8 nM and 2.4 nM, respectively.

Turning to `Cc1ncncc1-c1cnc(NCc2c(F)ccc3c2CCO3)n2cnnc12` [Example 176, N-((5-fluoro-2,3-dihydrobenzofuran-4-yl)methyl)-8-(4-methylpyrimidin-5-yl)-[1,2,4]triazolo[4,3-c]pyrimidin-5-amine], the IC50 in assay [1] was determined as 8.3 nM; in assay [2], 5.9 nM.

`Fc1ccc(-c2cnc(NCc3c(F)ccc4c3CCO4)n3cnnc23)c(Cl)c1` [Example 157, 8-(2-chloro-4-fluorophenyl)-N-((5-fluoro-2,3-dihydrobenzofuran-4-yl)methyl)-[1,2,4]triazolo[4,3-c]pyrimidin-5-amine]: the IC50 in assay [1] was 46.3 nM; in assay [2], 22.3 nM.

As to `Fc1ccc2c(c1CNc1ncc(-c3ccccn3)c3nncn13)CCO2` [Example 231, N-((5-fluoro-2,3-dihydrobenzofuran-4-yl)methyl)-8-(pyridin-2-yl)-[1,2,4]triazolo[4,3-c]pyrimidin-5-amine], the IC50 in assay [1] came to 6 nM; in assay [2] it was 6.1 nM.

For `CC(c1ccc(-c2cnc(NCc3cccc4c3CCO4)n3cnnc23)cc1)N1CCCC1` (centres unmarked) [Example 14, N-((2,3-dihydrobenzofuran-4-yl)methyl)-8-(4-(1-(pyrrolidin-1-yl)ethyl)phenyl)-[1,2,4]triazolo[4,3-c]pyrimidin-5-amine], the IC50 was found to be 12.8 nM in assay [1] and 7.8 nM in assay [2].

Consider `Cc1nn(C(C)C)cc1-c1cnc(NCc2cccc3c2CCO3)n2cnnc12` [Example 82, N-((2,3-dihydrobenzofuran-4-yl)methyl)-8-(1-isopropyl-3-methyl-1H-pyrazol-4-yl)-[1,2,4]triazolo[4,3-c]pyrimidin-5-amine], for which the IC50 worked out at 30.9 nM in assay [1] and 16.7 nM in assay [2].

Turning to `CN(C)C(=O)c1cccc(-c2cnc(NCc3cccc4c3CCO4)n3cnnc23)c1` [Example 43, 3-(5-(((2,3-dihydrobenzofuran-4-yl)methyl)amino)-[1,2,4]triazolo[4,3-c]pyrimidin-8-yl)-N,N-dimethylbenzamide], the IC50 in assay [1] was 33.1 nM; in assay [2], 30.9 nM.

As for `Fc1ccc2c(c1CNc1ncc(-c3cnccn3)c3nncn13)CCO2` [Example 205, N-((5-fluoro-2,3-dihydrobenzofuran-4-yl)methyl)-8-(pyrazin-2-yl)-[1,2,4]triazolo[4,3-c]pyrimidin-5-amine], the IC50 was 8.2 nM in assay [1] and 7.3 nM in assay [2].

Regarding `Cc1ncccc1-c1cnc(NCc2c(F)ccc3c2C(O)CO3)n2cnnc12` (centres unmarked) [Example 242, 5-fluoro-4-(((8-(2-methylpyridin-3-yl)-[1,2,4]triazolo[4,3-c]pyrimidin-5-yl)amino)methyl)-2,3-dihydrobenzofuran-3-ol], the IC50 came to 50 nM in assay [1] and 13.8 nM in assay [2].

Take `Cc1nn(C(C)C)c(C)c1-c1cnc(NCc2cccc3c2CCO3)n2cnnc12` [Example 153, N-((2,3-dihydrobenzofuran-4-yl)methyl)-8-(1-isopropyl-3,5-dimethyl-1H-pyrazol-4-yl)-[1,2,4]triazolo[4,3-c]pyrimidin-5-amine]: the IC50 in assay [1] amounted to 14.8 nM; in assay [2] it was 7.8 nM.

As for `CC(C)n1nccc1-c1cnc(NCc2c(F)ccc3c2CCO3)n2cnnc12` [Example 144, N-((5-fluoro-2,3-dihydrobenzofuran-4-yl)methyl)-8-(1-isopropyl-1H-pyrazol-5-yl)-[1,2,4]triazolo[4,3-c]pyrimidin-5-amine], the IC50 in assay [1] was found to be 17.8 nM; in assay [2], 6.3 nM.

As for `CNC(=O)c1ccc(-c2cnc(NCc3cccc4c3CCO4)n3cnnc23)cn1` [Example 79, 5-(5-(((2,3-dihydrobenzofuran-4-yl)methyl)amino)-[1,2,4]triazolo[4,3-c]pyrimidin-8-yl)-N-methylpicolinamide], the IC50 in assay [1] stood at 103 nM; in assay [2], 57.5 nM.

Take `CC1(C)COC(c2ccc(-c3cnc(NCc4cccc5c4CCO5)n4cnnc34)cn2)=N1` [Example 101, N-((2,3-dihydrobenzofuran-4-yl)methyl)-8-(6-(4,4-dimethyl-4,5-dihydrooxazol-2-yl)pyridin-3-yl)-[1,2,4]triazolo[4,3-c]pyrimidin-5-amine]: the IC50 was 13.6 nM in assay [1] and 11.7 nM in assay [2].

As to `Cc1cc(-c2cnc(NCc3c(F)ccc4c3CCO4)n3cnnc23)c(C)cn1` [Example 194, 8-(2,5-dimethylpyridin-4-yl)-N-((5-fluoro-2,3-dihydrobenzofuran-4-yl)methyl)-[1,2,4]triazolo[4,3-c]pyrimidin-5-amine], the IC50 was 7 nM in assay [1] and 2.4 nM in assay [2].

In the case of `O=CN1CCCN(c2ccc(-c3cnc(NCc4cccc5c4CCO5)n4cnnc34)cn2)CC1` [Example 113, 4-(5-(5-(((2,3-dihydrobenzofuran-4-yl)methyl)amino)-[1,2,4]triazolo[4,3-c]pyrimidin-8-yl)pyridin-2-yl)-1,4-diazepane-1-carbaldehyde], the values for the IC50 in assay [1] and in assay [2] were 15.7 nM and 12.7 nM, respectively.

With `c1ccc(-c2cnc(NCc3cccc4c3CCO4)n3cnnc23)cc1` [Example 13, N-((2,3-dihydrobenzofuran-4-yl)methyl)-8-phenyl-[1,2,4]triazolo[4,3-c]pyrimidin-5-amine], the IC50 in assay [1] came to 47.7 nM; in assay [2], 53.6 nM.

`Cc1nn(CCO)c(C)c1-c1cnc(NCc2c(F)ccc3c2CCO3)n2cnnc12` [Example 158, 2-(4-(5-(((5-fluoro-2,3-dihydrobenzofuran-4-yl)methyl)amino)-[1,2,4]triazolo[4,3-c]pyrimidin-8-yl)-3,5-dimethyl-1H-pyrazol-1-yl)ethanol]: the IC50 in assay [1] came out at 9.6 nM; in assay [2], 5.1 nM.

For `COc1cc(C)c(-c2cnc(NCc3c(F)ccc4c3CCO4)n3cnnc23)cn1` [Example 5, N-((5-fluoro-2,3-dihydrobenzofuran-4-yl)methyl)-8-(6-methoxy-4-methylpyridin-3-yl)-[1,2,4]triazolo[4,3-c]pyrimidin-5-amine], the IC50 in assay [1] came out at 9.7 nM; in assay [2], 4.8 nM.

Take `Cc1cc(-c2cnc(NCc3cccc4c3CCO4)n3cnnc23)cnc1N1CCCC1` [Example 103, N-((2,3-dihydrobenzofuran-4-yl)methyl)-8-(5-methyl-6-(pyrrolidin-1-yl)pyridin-3-yl)-[1,2,4]triazolo[4,3-c]pyrimidin-5-amine]: the IC50 is 431 nM in assay [1] and 728 nM in assay [2].

Take `Cc1nn(C(C)C)cc1-c1cnc(NCc2c(F)ccc3c2CCO3)n2cnnc12` [Example 4, N-((5-Fluoro-2,3-dihydrobenzofuran-4-yl)methyl)-8-(1-isopropyl-3-methyl-1H-pyrazol-4-yl)-[1,2,4]triazolo[4,3-c]pyrimidin-5-amine]: the IC50 in assay [1] turned out to be 3.9 nM; in assay [2], 3.2 nM.

In the case of `Cn1cc(-c2cnc(NCc3c(F)ccc4c3CCO4)n3cnnc23)cn1` [Example 147, N-((5-fluoro-2,3-dihydrobenzofuran-4-yl)methyl)-8-(1-methyl-1H-pyrazol-4-yl)-[1,2,4]triazolo[4,3-c]pyrimidin-5-amine], the results for the IC50 in assay [1] and in assay [2] were 15.9 nM and 3.6 nM, respectively.

As for `Cc1nccc(-c2cnc(NCc3c(F)ccc4c3CCO4)n3cnnc23)c1C` [Example 177, 8-(2,3-dimethylpyridin-4-yl)-N-((5-fluoro-2,3-dihydrobenzofuran-4-yl)methyl)-[1,2,4]triazolo[4,3-c]pyrimidin-5-amine], the IC50 in assay [1] came to 4.4 nM; in assay [2], 3.8 nM.

Take `CS(=O)(=O)CCCOc1cncc(-c2cnc(NCc3cccc4c3CCO4)n3cnnc23)c1` [Example 98, N-((2,3-dihydrobenzofuran-4-yl)methyl)-8-(5-(3-(methylsulfonyl)propoxy)pyridin-3-yl)-[1,2,4]triazolo[4,3-c]pyrimidin-5-amine]: the IC50 in assay [1] was 35.6 nM; in assay [2], 21.7 nM.
